Measurements from patent publication US20220324865A1 (Bayer Aktiengesellschaft, priority 2018, published 2022).

Molecular target: T1, human EP3 receptor (Homo sapiens, UniProt P43115)
T1 construct: expressed in transfected cells; host or cells: CHO K1 (Chinese Hamster Ovary), stably co-transfected with Galpha16 and mitochondrial clytin
T1 sequence (P43115 1-390): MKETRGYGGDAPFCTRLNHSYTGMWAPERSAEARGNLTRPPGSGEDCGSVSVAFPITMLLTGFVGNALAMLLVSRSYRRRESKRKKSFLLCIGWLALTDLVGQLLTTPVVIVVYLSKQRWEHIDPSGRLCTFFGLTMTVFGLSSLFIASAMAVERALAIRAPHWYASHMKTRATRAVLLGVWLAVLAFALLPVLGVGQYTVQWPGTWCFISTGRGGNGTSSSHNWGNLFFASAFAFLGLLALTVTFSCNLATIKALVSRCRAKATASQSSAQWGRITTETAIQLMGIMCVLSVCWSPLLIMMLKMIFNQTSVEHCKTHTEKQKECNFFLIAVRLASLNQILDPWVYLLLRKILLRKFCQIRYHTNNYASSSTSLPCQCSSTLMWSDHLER
Assay: Cellular in vitro assay for determining EP3 receptor activity (human EP3 cell line, sulprostone-stimulated calcium luminescence)
Format: cell-based
Conditions: CHO cells expressing human EP3 and mitochondrial Clytin; antagonist mode, sulprostone at EC50; read-out: EP3 CHO mtCLY ANTAG IC50
Summary of the method: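 CHO K1 cells stably expressing human EP3 with Gα16 and mitochondrial Clytin, loaded overnight with coelenterazine. Compounds added 10 min before sulprostone at its EC50; antagonism read immediately as reduced calcium-driven luminescence, quadruplicate points.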

Row | SMILES | IC50 [nM]
1 | Cn1cnc2cc(-c3cn4nc(C(=O)N[C@@H](c5ccc(F)cc5)C(C)(C)O)c(C(F)(F)F)c4c(=O)[nH]3)ccc21 [6-659] | 8.55
2 | O=C(N[C@@H](c1ccc(F)cc1)C(F)(F)CO)c1nn2cc(-c3cc(Cl)c(Cl)cc3F)[nH]c(=O)c2c1C1CC1 [6-582] | 2.65
3 | O=C(NC(CN1CCOCC1)c1ccc(F)cc1)c1cc2c(=O)[nH]c(-c3ccc4ccccc4c3)cn2n1 (centres unmarked) [Example 1-40, N-[1-(4-Fluorophenyl)-2-morpholinoethyl]-6-(2-naphthyl)-4-oxo-5H-pyrazolo[1,5-a]pyrazine-2-carboxamide] | 8.27
4 | Cc1ccc(-c2cn3nc(C(=O)NC4(c5ccc(F)cc5)COC4)cc3c(=O)[nH]2)cc1C [6-55] | 1.53
5 | COc1ccc(C(C)NC(=O)c2nn3cc(-c4cnc5cccc(C)c5c4)[nH]c(=O)c3c2C(C)C)cn1 (centres unmarked) [Example 4-6, 3-Isopropyl-N-[1-(6-methoxy-3-pyridyl)ethyl]-6-(5-methyl-3-quinolyl)-4-oxo-5H-pyrazolo[1,5-a]pyrazine-2-carboxamide] | 1.16
6 | O=C(N[C@@H](c1ccc(F)cc1)C(F)(F)CO)c1nn2cc(-c3ccc(Cl)cc3)[nH]c(=O)c2c1C1CC1 [6-675] | 1.5
7 | Cc1ccc(-c2cn3nc(C(=O)NC(C)c4ccc(F)cc4)cc3c(=O)[nH]2)cc1C (centres unmarked) [Example 5-1, 6-(3,4-Dimethylphenyl)-N-[1-(4-fluorophenyl)ethyl]-4-oxo-5H-pyrazolo[1,5-a]pyrazine-2-carboxamide] | 6.78
8 | Cc1cc(-c2cn3nc(C(=O)N[C@@H](c4ccc(F)cc4)C(C)(C)O)c(C4CCC4)c3c(=O)[nH]2)ccc1Cl [6-620] | 1.5
9 | Cc1c(C(=O)NC(C)CC2CC2)nn2c(C)c(-c3ccc4ccccc4c3)[nH]c(=O)c12 (centres unmarked) [Example 3-10, N-(1-Cyclopropylpropan-2-yl)-3,7-dimethyl-6-(2-naphthyl)-4-oxo-4,5-dihydropyrazolo[1,5-a]pyrazine-2-carboxamide] | 2.75
10 | O=C(N[C@H](CN1CC(F)C1)c1ccccc1)c1cc2c(=O)[nH]c(-c3ccc4ccccc4c3)cn2n1 [6-545] | 0.77
11 | Cc1cc(-c2cn3nc(C(=O)NCC(O)(C(F)(F)F)C(F)(F)F)c(C4CC4)c3c(=O)[nH]2)ccc1Cl [6-305] | 2.95
12 | Cc1ccc(-c2cn3nc(C(=O)NC4CC(F)(F)C4)c(C4CC4)c3c(=O)[nH]2)cc1Cl [6-255] | 0.95
13 | Cc1c(C(=O)N[C@H](C)c2ccc(F)cc2)nn2cc(-c3ccc4ccccc4c3)[nH]c(=O)c12 [Example 1-45, N-[(1R)-1-(4-Fluorophenyl)ethyl]-3-methyl-6-(naphthalen-2-yl)-4-oxo-4,5-dihydropyrazolo[1,5-a]-pyrazine-2-carboxamide] | 2.85
14 | Cc1cccc2ncc(-c3cn4nc(C(=O)NC5CCOC5)c(C(C)C)c4c(=O)[nH]3)cc12 (centres unmarked) [Example 4-21, 3-Isopropyl-6-(5-methyl-3-quinolyl)-4-oxo-N-(tetrahydrofuran-3-yl)-5H-pyrazolo[1,5-a]pyrazine-2-carboxamide] | 1.95
15 | Cc1cc(-c2cn3nc(C(=O)N[C@@H](c4ccc(F)cc4)C(F)(F)CO)c(C(F)(F)C(F)(F)F)c3c(=O)[nH]2)ccc1Cl [6-477] | 0.44
16 | Cc1cccc2ncc(-c3cn4nc(C(=O)NCc5ccnn5C)c(C(C)C)c4c(=O)[nH]3)cc12 [Example 4-22, N-[(1-Methyl-1H-pyrazol-5-yl)methyl]-6-(5-methylquinolin-3-yl)-4-oxo-3-(propan-2-yl)-4,5-dihydropyrazolo[1,5-a]pyrazine-2-carboxamide] | 0.815
17 | O=C(NC(CO)(CO)C(F)(F)F)c1nn2cc(-c3ccc4ccccc4c3)[nH]c(=O)c2c1C(F)(F)F [6-498] | 7.13
18 | CC(C)(O)[C@@H](NC(=O)c1nn2cc(-c3ccc4ccccc4c3)[nH]c(=O)c2c1C(F)(F)F)c1ccc(F)cc1 [Example 1-19, N-[(1S)-1-(4-Fluorophenyl)-2-hydroxy-2-methylpropyl]-6-(naphthalen-2-yl)-4-oxo-3-(trifluoromethyl)-4,5-dihydropyrazolo[1,5-a]pyrazine-2-carboxamide] | 0.705
19 | COc1cc(-c2cn3nc(C(=O)N[C@H](CCO)c4ccc(F)cc4)c(C4CC4)c3c(=O)[nH]2)ccc1Cl [6-482] | 0.48
20 | CC(NC(=O)c1cc2c(=O)[nH]c(-c3ccc4ccccc4c3)cn2n1)c1ccc(OCC(F)(F)F)cn1 (centres unmarked) [6-6] | 2.8
21 | Cc1ccc(-c2cn3nc(C(=O)N[C@@H](c4ccccc4)C(C)(C)O)c(C(F)(F)F)c3c(=O)[nH]2)cc1F [6-143] | 4.35

Row | SMILES | IC50 [nM]
22 | CC(CC(F)(F)F)NC(=O)c1cc2c(=O)[nH]c(-c3ccc4ccccc4c3)cn2n1 (centres unmarked) [6-52] | 3.55
23 | Cc1c(C(=O)N[C@H](C)c2ccccc2)nn2c(C)c(-c3ccc4ccccc4c3)[nH]c(=O)c12 [Example 3-65, 3,7-Dimethyl-6-(naphthalen-2-yl)-4-oxo-N-[(1R)-1-phenylethyl]-4,5-dihydropyrazolo[1,5-a]pyrazine-2-carboxamide] | 2
24 | N#Cc1c(C(=O)NC(CO)c2cc(Cl)cc(Cl)c2)nn2cc(-c3ccc4ccccc4c3)[nH]c(=O)c12 (centres unmarked) [Example 3-76, 3-Cyano-N-[1-(3,5-dichlorophenyl)-2-hydroxyethyl]-6-(2-naphthyl)-4-oxo-5H-pyrazolo[1,5-a]pyrazine-2-carboxamide] | 4.35
25 | Cc1cccc2ncc(-c3cn4nc(C(=O)NC(C)c5ccc(Cl)cc5Cl)c(C(C)C)c4c(=O)[nH]3)cc12 (centres unmarked) [Example 4-82, N-[1-(2,4-Dichlorophenyl)ethyl]-3-isopropyl-6-(5-methyl-3-quinolyl)-4-oxo-5H-pyrazolo[1,5-a]pyrazine-2-carboxamide] | 6.25
26 | COc1ccc(C(C)NC(=O)c2cc3c(=O)[nH]c(-c4ccc5ccccc5c4)cn3n2)cc1 (centres unmarked) [Example 2-3, N-[1-(4-Methoxyphenyl)ethyl]-6-(2-naphthyl)-4-oxo-4,5-dihydropyrazolo[1,5-a]pyrazine-2-carboxamide] | 1.65
27 | Cc1ccc(-c2cn3nc(C(=O)NCC(O)(C(F)(F)F)C(F)(F)F)c(C4CC4)c3c(=O)[nH]2)cc1F [6-403] | 0.69
28 | CC(C)(O)[C@@H](NC(=O)c1nn2cc(-c3ccc4c(c3)OCCO4)[nH]c(=O)c2c1C1CC1)c1ccc(F)cc1 [6-466] | 5.4
29 | Cc1ccc(-c2cn3nc(C(=O)NCCNCC(F)F)c(C(F)(F)F)c3c(=O)[nH]2)cc1Cl [6-165] | 9.75
30 | COC[C@H](NC(=O)c1nn2cc(-c3ccc(Cl)c(C)c3)[nH]c(=O)c2c1C1CC1)c1ccccc1 [6-304] | 0.65
31 | CC(C)c1c(C(=O)N[C@H](C)c2ccc(F)cc2)nn2cc(-c3ccc4ccccc4c3)[nH]c(=O)c12 [Example 1-8, N-[(1R)-1-(4-Fluorophenyl)ethyl]-6-(naphthalen-2-yl)-4-oxo-3-(propan-2-yl)-4,5-dihydropyrazolo-[1,5-a]pyrazine-2-carboxamide] | 1.36
32 | Cc1ccc(-c2cn3nc(C(=O)NCC(O)C(F)(F)F)c(C4CC4)c3c(=O)[nH]2)cc1Cl (racemic) [6-258] | 0.82
33 | Cc1ccc(CNC(=O)c2cc3c(=O)[nH]c(-c4ccc5ccccc5c4)cn3n2)cc1 [Example 2-14, N-(4-Methylbenzyl)-6-(2-naphthyl)-4-oxo-4,5-dihydropyrazolo[1,5-a]pyrazine-2-carboxamide] | 1.25
34 | CN(C)C[C@@H](NC(=O)c1cc2c(=O)[nH]c(-c3ccc4c(c3F)OCCO4)cn2n1)c1ccccc1 [Example 1-109, N-[(1S)-2-(Dimethylamino)-1-phenylethyl]-6-(5-fluoro-2,3-dihydro-1,4-benzodioxin-6-yl)-4-oxo-4,5-dihydropyrazolo[1,5-a]pyrazine-2-carboxamide] | 5.97
35 | CCc1ccc(C(C)NC(=O)c2nn3c(C)c(-c4ccc5ccccc5c4)[nH]c(=O)c3c2C)cc1 (centres unmarked) [Example 3-26, N-[1-(4-Ethylphenyl)ethyl]-3,7-dimethyl-6-(2-naphthyl)-4-oxo-5H-pyrazolo[1,5-a]pyrazine-2-carboxamide] | 4.15
36 | CCC(CNC(=O)c1cc2c(=O)[nH]c(-c3ccc4ccccc4c3)cn2n1)n1cc(Cl)cn1 (centres unmarked) [Example 2-10, N-[2-(4-Chlor-1H-pyrazol-1-yl)butyl]-6-(2-naphthyl)-4-oxo-4,5-dihydropyrazolo[1,5-a]pyrazine-2-carboxamide] | 1.7
37 | O=C(NCC1CCCCC1)c1cc2c(=O)[nH]c(-c3ccc4c(c3)OCCO4)cn2n1 [Example 1-43, N-(Cyclohexylmethyl)-6-(2,3-dihydro-1,4-benzodioxin-6-yl)-4-oxo-4,5-dihydropyrazolo[1,5-a]-pyrazine-2-carboxamide] | 1.7
38 | CN1CC(NC(=O)c2nn3cc(-c4ccc(Cl)cc4)[nH]c(=O)c3c2C2CC2)(c2ccc(F)cc2)C1 [6-673] | 3.3
39 | C[C@@H](NC(=O)c1cc2c(=O)[nH]c(-c3ccc4ccccc4n3)cn2n1)c1ccc(F)cc1 [Example 1-105, N-[(1R)-1-(4-Fluorophenyl)ethyl]-4-oxo-6-(quinolin-2-yl)-4,5-dihydropyrazolo[1,5-a]pyrazine-2-carboxamide] | 1.48
40 | Cc1cc(-c2cn3nc(C(=O)N[C@H](CN4CCOCC4)c4ccc(F)cc4)c(C4CC4)c3c(=O)[nH]2)ccc1Cl [6-337] | 1.5
41 | CC(C)(O)[C@@H](NC(=O)c1nn2cc(-c3ccc(Cl)cc3)[nH]c(=O)c2c1C1CC1)c1ccc(F)cc1 [6-676] | 3.55
